Measurements taken from patent publication US7935709B2, “2-quinazolinone compounds and methods of use” (Amgen Inc., priority 2006, dated 2011).

Legend:
[1] = system: TNF production by monocytes; assay: Lipopolysaccharide-Activated Monocyte TNF Production Assay (LPS induced TNF release); type: cell-based; settings: Homo sapiens, LPS-activated adherent monocytes from PBMCs
Experimental: Lipopolysaccharide-Activated Monocyte TNF Production Assay
Test compounds were evaluated in vitro for the ability to inhibit the production of TNF by monocytes activated with bacterial lipopolysaccharide (LPS). Fresh residual source leukocytes (a byproduct of plateletpheresis) were obtained from a local blood bank, and peripheral blood mononuclear cells (PBMCs) were isolated by density gradient centrifugation on Ficol-Paque Plus (Pharmacia). PBMCs were suspended at 2×10^6/mL in DMEM supplemented to contain 2% FCS, 10 mM, 0.3 mg/mL […], 100 U/mL penicillin G and […] streptomycin sulfate (complete media). Cells were plated into Falcon flat bottom, 96 well culture plates (200 μL/well) and cultured overnight at 37° C. and 6% CO2. Non-adherent cells were removed by washing with 200 μl/well of fresh medium. Wells containing adherent cells (˜70% monocytes) were replenished with 100 μL of fresh medium.
Preparation of Test Compound Stock Solutions
Test compounds were dissolved in […]. Compound stock solutions were prepared to an initial concentration of […]. Stocks were diluted initially to 20-200 μM in complete media. Nine two-fold serial dilutions of each compound were then prepared in complete medium. Treatment of cells with test compounds and activation of TNF production with lipopolysaccharide.
One hundred microliters of each test compound dilution were added to microtiter wells containing adherent monocytes and 100 μL complete medium. Monocytes were cultured with test compounds for 60 min at which time 25 μL of complete medium containing 30 ng/mL lipopolysaccharide from E. coli K532 were added to each well. Cells were cultured an additional 4 hrs. Culture supernatants were then removed and TNF presence in the supernatants was quantified using an ELISA.
Flat bottom, 96 well Corning High Binding ELISA plates were coated overnight (4° C.) with 150 μL/well of 3 μg/mL murine anti-human TNF-α MAb (R&D Systems #MAB210). Wells were then blocked for 1 h at room temperature with 200 μL/well of CaCl2-free ELISA buffer supplemented to contain 20 mg/mL BSA (standard ELISA buffer: […], 150 mM NaCl, 2 mM CaCl2, 0.15 mM thimerosal, pH 7.4). Plates were washed and replenished with 100 μL of test supernatants (diluted 1:3) or standards. Standards consisted of eleven 1.5-fold serial dilutions from a stock of 1 ng/mL recombinant human TNF (R&D Systems). Plates were incubated at room temperature for 1 h on orbital shaker (300 rpm), washed and replenished with 100 μL/well of 0.5 μg/mL goat anti-human TNF-α(R&D systems #AB-210-NA) biotinylated at a 4:1 ratio. Plates were incubated for 40 min, washed and replenished with 100 μL/well of alkaline phosphatase-conjugated streptavidin (Jackson ImmunoResearch #016-050-084) at 0.02 μg/mL. Plates were incubated 30 min, washed and replenished with 200 μL/well of 1 mg/mL of p-nitrophenyl phosphate. After 30 min, plates were read at 405 nm on a Vmax plate reader.
Standard curve data were fit to a second order polynomial and unknown TNF-α concentrations determined from their OD by solving this equation for concentration. TNF concentrations were then plotted vs. test compound concentration using a second order polynomial. This equation was then used to calculate the concentration of test compounds causing a 50% reduction in TNF production.

[2] = system: TNF-α secretion by THP1 cells; assay: Lipopolysaccharide-Activated THP1 Cell TNF Production Assay (THP-cellular TNF release assay); type: cell-based; settings: Homo sapiens, THP-1, LPS-activated THP1 cells
Experimental: Lipopolysaccharide-Activated THP1 Cell TNF Production Assay
THP1 cells are re-suspended in fresh THP1 media (RPMI 1640, 10% heat-inactivated FBS, 1XPGS, 1XNEM, plus 30 μM βME) at a concentration of 1E6/mL. One hundred microliters of cells per well were plated in a polystyrene 96-well tissue culture. One microgram per mL of bacterial LPS is prepared in THP1 media and is transferred to the wells. Test compounds are dissolved in 100% DMSO and are serially diluted 3 fold in a polypropylene 96-well microtiter plate (drug plate). HI control and LO control wells contain only DMSO. One microliter of test compound from the drug plate followed by 10 μL of LPS were transferred to the cell plate. The treated cells are induced to synthesize and secrete TNF-α at 37° C. for 3 h. Forty microliters of conditioned media are transferred to a 96-well polypropylene plate containing 110 μL of ECL buffer (50 mM Tris-HCl pH 8.0, 100 mM NaCl, 0.05% Tween 20, 0.05% NaN3 and 1% FBS) supplemented with 0.44 nM MAB610 monoclonal Ab (R&D Systems), 0.34 nM ruthenylated AF210NA polyclonal Ab (R&D Systems) and 44 μg/mL sheep anti-mouse M280 Dynabeads (Dynal). After a 2 h incubation at room temperature with shaking, the reaction is read on the ECL M8 Instrument (IGEN Inc.). A low voltage is applied to the ruthenylated TNF-α immune complexes, which in the presence of TPA (the active component in Origlo), results in a cyclical redox reaction generating light at […]. The amount of secreted TNF-αin the presence of compound compared with that in the presence of DMSO vehicle alone (HI control) is calculated using the formula: % control (POC)=(cpd−average LO)/(average HI−average LO)*100. Data (consisting of POC and inhibitor concentration in μM) is fitted to a 4-parameter equation (y=A+((B−A)/(1+((x/C)^D))), where A is the minimum y (POC) value, B is the maximum y (POC), C is the x (cpd concentration) at the point of inflection and D is the slope factor) using a Levenburg-Marquardt non-linear regression algorithm.

IC50 [1] [µM] | IC50 [2] [µM] | Structure (SMILES)
≤ 25 |  | Cc1ccc(C(=O)NC2CC2)cc1-c1ccc2c(c1)CNC(=O)N2c1ccccc1C [Example 5, N-Cyclopropyl-4-methyl-3-(2-oxo-1-o-tolyl-1,2,3,4-tetrahydroquinazolin-6-yl)benzamide]
≤ 25 |  | Cc1ccc(C(=O)NC2CC2)cc1-c1ccc2c(c1)CNC(=O)N2c1ccccc1Cl [Example 11, 3-(1-(2-chlorophenyl)-2-oxo-1,2,3,4-tetrahydro-6-quinazolinyl)-N-cyclopropyl-4-methylbenzamide]
≤ 25 |  | Cc1ccc(C(=O)NC2CC2)cc1-c1ccc2c(cnc(=O)n2C2CCOCC2)c1 [Example 13, N-cyclopropyl-4-methyl-3-(2-oxo-1-(tetrahydro-2H-pyran-4-yl)-1,2-dihydro-6-quinazolinyl)benzamide]
≤ 25 |  | Cc1ccc(C(=O)NC2CC2)cc1-c1ccc2c(cnc(=O)n2-c2ccccc2Cl)c1 [Example 3]
≤ 25 |  | Cc1ccc(C(=O)NC2CC2)cc1-c1ccc2c(cnc(=O)n2CCN2CCOCC2)c1 [Example 8, N-Cyclopropyl-4-methyl-3-(1-(2-morpholinoethyl)-2-oxo-1,2-dihydroquinazolin-6-yl)benzamide]
≤ 25 |  | Cc1ccc(C(=O)NC2CC2)cc1-c1ccc2c(cnc(=O)n2C2CCN(C(=O)OC(C)(C)C)CC2)c1 [Example 10, tert-Butyl 4-(6-(5-(cyclopropylcarbamoyl)-2-methylphenyl)-2-oxoquinazolin-1(2H)-yl)piperidine-1-carboxylate]
≤ 25 |  | Cc1ccc(C(=O)NC2CC2)cc1-c1ccc2c(cnc(=O)n2-c2ccccc2C)c1 [Example 6, N-Cyclopropyl-4-methyl-3-(2-oxo-1-o-tolyl-1,2-dihydroquinazolin-6-yl)benzamide]
≤ 25 | ≤ 2.5 | Cc1ccc(C(=O)NC2CC2)cc1-c1cnc2c(c1)CNC(=O)N2c1ccccc1Cl [Example 12, 3-(1-(2-chlorophenyl)-2-oxo-1,2,3,4-tetrahydropyrido[2,3-d]pyrimidin-6-yl)-N-cyclopropyl-4-methylbenzamide]
≤ 25 | ≤ 2.5 | Cc1ccncc1-c1ccc2c(c1)CNC(=O)N2c1ccccc1Cl [Example 4, 1-(2-Chlorophenyl)-6-(4-methylpyridin-3-yl)-3,4-dihydroquinazolin-2(1H)-one]
≤ 25 | ≤ 2.5 | COc1ccc(CN2Cc3cc(-c4cc(C(=O)NC5CC5)ccc4C)ccc3NC2=O)cc1 [Example 2, 3-(3-(4-Methoxybenzyl)-2-oxo-1,2,3,4-tetrahydroquinazolin-6-yl)-N-cyclopropyl-4-methylbenzamide]
≤ 25 | ≤ 2.5 | O=c1ncc2cc(Cl)ccc2n1Cc1ccccc1 [Example 1, 1-Benzyl-6-chloroquinazolin-2-(1H)-one]
